In US20230174556A1, “COMPOUNDS AS PROTEIN KINASE INHIBITORS” (Fochon Biosciences, Ltd., priority 2020, published 2023):

These compounds were tested on OCI-LY10 (PI3Kδ dependent) cells (assay: OCI-LY10 cell proliferation assay (MTS)). Details: Homo sapiens, OCI-Ly10, 72 h, inhibition of OCI-LY10 cells proliferation, 72 h incubation, MTS readout at 490 nm.
Type: cell-based
Protocol: MTS testing kit was purchased from Promega (Madison, WI, USA). The RPMI-1640, Fetal bovine serum and Penicillin-Streptomycin were purchased from BI (Biological Industries, Beit Haemek, Israel). Dimethyl sulfoxide (DMSO) was purchased from Sigma (St. Louis., MO, USA). OCI-LY10 cells were cultured in RPMI1640 supplemented with Penicillin-Streptomycin and 10% FBS.
To investigate whether a compound is able to inhibit the activity of PI3Kδ in cells, a mechanism-based assay using OCI-LY10 (PI3Kδ dependent) cells was developed. In this assay, inhibition of PI3Kδ was detected by the inhibition of OCI-LY10 cells proliferation. Cells were plated into 96-well plates at a density of 10000 cells/well. Plates were incubated at 37° C., with 5 % CO2 for 4 h. Compounds were serially diluted and added to the plates with the final compound concentrations as 10000, 3333.3, 1111.1, […], 123.5, 41.2, 13.7, 4.6 and 1.5 nM. Plates were incubated at 37° C., with 5 % CO2 for 72 h. 20 µl MTS was added into each well and the plates were incubated at 37° C., with 5 % CO2 for exactly 2 h. The absorbance was measured by a microplate reader at 490 nm. IC50 was calculated using GraphPad Prism 5.0 software.

Row | Structure (SMILES) | IC50 [nM]
1 | Cc1csc2cc([C@H](C)n3nc(-c4ccc(OC(C)C)c(F)c4)c4c(N)ncnc43)c(-c3ccccc3)c(=O)n12 [Example 2-S, (S)-7-(1-(4-amino-3-(3-fluoro-4-isopropoxyphenyl)-1H-pyrazolo[3,4-d]pyrimidin-1-yl)ethyl)-3-methyl-6-phenyl-5H-thiazolo[3,2-a]pyridin-5-one] | 1
2 | CC(C)Oc1ccc(-c2nn([C@@H](C)c3cc4scc(Cl)n4c(=O)c3-c3cccc(F)c3)c3ncnc(N)c23)cc1F [Example 3, (S)-7-(1-(4-amino-3-(3-fluoro-4-isopropoxyphenyl)-1H-pyrazolo[3,4-d]pyrimidin-1-yl)ethyl)-3-chloro-6-(3-fluorophenyl)-5H-thiazolo[3,2-a]pyridin-5-one] | 1
3 | CC(C)Oc1ccc(-c2nn([C@@H](C)c3cc4scc(Cl)n4c(=O)c3-c3ccccc3)c3ncnc(N)c23)cc1F [Example 4, (S)-7-(1-(4-amino-3-(3-fluoro-4-isopropoxyphenyl)-1H-pyrazolo[3,4-d]pyrimidin-1-yl)ethyl)-3-chloro-6-phenyl-5H-thiazolo[3,2-a]pyridin-5-one] | 1
4 | COc1ccc(-c2nn([C@@H](C)c3cc4scc(C)n4c(=O)c3-c3cccc(F)c3)c3ncnc(N)c23)cc1NS(C)(=O)=O [Example 5, (S)-N-(5-(4-amino-1-(1-(6-(3-fluorophenyl)-3-methyl-5-oxo-5H-thiazolo[3,2-a]pyridin-7-yl)ethyl)-1H-pyrazolo[3,4-d]pyrimidin-3-yl)-2-methoxyphenyl)methanesulfonamide] | 1
5 | COc1ccc(-c2nn([C@@H](C)c3cc4scc(C)n4c(=O)c3-c3ccccc3)c3ncnc(N)c23)cc1NS(C)(=O)=O [Example 6, (S)-N-(5-(4-amino-1-(1-(3-methyl-5-oxo-6-phenyl-5H-thiazolo[3,2-a]pyridin-7-yl)ethyl)-1H-pyrazolo[3,4-d]pyrimidin-3-yl)-2-methoxyphenyl)meth anesulfonamide] | 1
6 | Cc1csc2nc([C@H](C)n3nc(-c4ccc(OC(C)C)c(F)c4)c4c(N)ncnc43)c(-c3cccc(F)c3)c(=O)n12 [Example 7, (S)-7-(1-(4-amino-3-(3-fluoro-4-isopropoxyphenyl)-1H-pyrazolo[3,4-d]pyrimidin-1-yl)ethyl)-6-(3-fluorophenyl)-3-methyl-5H-thiazolo[3,2-a]pyrimidin-5-one] | 4
7 | Cc1csc2nc([C@H](C)n3nc(-c4ccc(OC(C)C)c(F)c4)c4c(N)ncnc43)c(-c3ccccc3)c(=O)n12 [Example 8, (S)-7-(1-(4-amino-3-(3-fluoro-4-isopropoxyphenyl)-1H-pyrazolo[3,4-d]pyrimidin-1-yl)ethyl)-3-methyl-6-phenyl-5H -thiazolo[3,2-a]pyrimidin-5-one] | 6
8 | CC(C)Oc1ccc(-c2nn([C@H](c3cc4scc(Cl)n4c(=O)c3-c3cccc(F)c3)C3CC3)c3ncnc(N)c23)cc1F [Example 11, (S)-7-((4-amino-3-(3-fluoro-4-isopropoxyphenyl)-1H-pyrazolo[3,4-d]pyrimidin-1-yl)(cyclopropyl)methyl)-3-chlor o-6-(3-fluorophenyl)-5H-thiazolo[3,2-a]pyridin-5-one] | 1
9 | C[C@@H](c1cc2scc(Cl)n2c(=O)c1-c1cccc(F)c1)n1nc(-c2ccc(OC3CC3)c(F)c2)c2c(N)ncnc21 [Example 12, (S)-7-(1-(4-amino-3-(4-cyclopropoxy-3-fluorophenyl)-1H-pyrazolo[3,4-d]pyrimidin-1-yl)ethyl)-3-chloro-6-(3-fluor ophenyl)-5H-thiazolo[3,2-a]pyridin-5-one] | 18
10 | C[C@@H](c1cc2scc(Cl)n2c(=O)c1-c1ccccc1)n1nc(-c2ccc(OC3CC3)c(F)c2)c2c(N)ncnc21 [Example 13, (S)-7-(1-(4-amino-3-(4-cyclopropoxy-3-fluorophenyl)-1H-pyrazolo[3,4-d]pyrimidin-1-yl)ethyl)-3-chloro-6-phenyl-5H-thiazolo[3,2-a]pyridin-5-one] | 15
11 | Cc1csc2cc([C@H](C)n3nc(-c4ccc(OC(F)F)c(F)c4)c4c(N)ncnc43)c(-c3cccc(F)c3)c(=O)n12 [Example 14, (S)-7-(1-(4-amino-3-(4-(difluoromethoxy)-3-fluorophenyl)-1H-pyrazolo[3,4-d]pyrimidin-1-yl)ethyl)-6-(3-fluorophenyl)-3-methyl-5H-thiazolo[3,2-a]pyrid in-5-one] | 1
12 | Cc1csc2cc([C@H](C)n3nc(-c4ccc(OC(F)F)c(F)c4)c4c(N)ncnc43)c(-c3ccccc3)c(=O)n12 [Example 15, (S)-7-(1-(4-amino-3-(4-(difluoromethoxy)-3-fluorophenyl)-1H-pyrazolo[3,4-d]pyrimidin-1-yl)ethyl)-3-methyl-6-ph enyl-5H-thiazolo[3,2-a]pyridin-5-one] | 1
13 | Cc1csc2cc([C@H](C)n3nc(-c4ccc(OC5CC5)c(F)c4)c4c(N)ncnc43)c(-c3cccc(F)c3)c(=O)n12 [Example 16, (S)-7-(1-(4-amino-3-(4-cyclopropoxy-3-fluorophenyl)-1H-pyrazolo[3,4-d]pyrimidin-1-yl)ethyl)-6-(3-fluorophenyl) -3-methyl-5H-thiazolo[3,2-a]pyridin-5-one] | 26
14 | Cc1csc2cc([C@H](C)n3nc(-c4ccc(OC(C)C)nc4)c4c(N)ncnc43)c(-c3ccccc3)c(=O)n12 [Example 18, (S)-7-(1-(4-amino-3-(6-isopropoxypyridin-3-yl)-1H-pyrazolo[3,4-d]pyrimidin-1-yl)ethyl)-3-methyl-6-phenyl-5H-thi azolo[3,2-a]pyridin-5-one] | 1
15 | Cc1csc2cc([C@H](C)n3nc(-c4ccc(OC(C)C)nc4)c4c(N)ncnc43)c(-c3cccc(F)c3)c(=O)n12 [Example 19, (S)-7-(1-(4-amino-3-(6-isopropoxypyridin-3-yl)-1H-pyrazolo[3,4-d]pyrimidin-1-yl)ethyl)-6-(3-fluorophenyl)-3-methyl-5H-thiazolo[3,2-a]pyridin-5-one] | 1
16 | Cc1csc2cc([C@H](C)n3nc(-c4cnc(OC(C)C)c(F)c4)c4c(N)ncnc43)c(-c3ccccc3)c(=O)n12 [Example 20, (S)-7-(1-(4-amino-3-(5-fluoro-6-isopropoxypyridin-3-yl)-1H-pyrazolo[3,4-d]pyrimidin-1-yl)ethyl)-3-methyl-6-phenyl-5H-thiazolo[3,2-a]pyridin-5-one] | 1
17 | Cc1csc2cc([C@H](C)n3nc(-c4cnc(OC(C)C)c(F)c4)c4c(N)ncnc43)c(-c3cccc(F)c3)c(=O)n12 [Example 21, (S)-7-(1-(4-amino-3-(5-fluoro-6-isopropoxypyridin-3-yl)-1H-pyrazolo[3,4-d]pyrimidin-1-yl)ethyl)-6-(3-fluorophenyl)-3-methyl-5H-thiazolo[3,2-a]pyridi n-5-one] | 1
18 | COc1ccc(-c2nn([C@@H](C)c3cc4scc(Cl)n4c(=O)c3-c3ccccc3)c3ncnc(N)c23)cc1NS(C)(=O)=O [Example 44, (S)-N-(5-(4-amino-1-(1-(3-chloro-5-oxo-6-phenyl-5H-thiazolo[3,2-a]pyridin-7-yl)ethyl)-1H-pyrazolo[3,4-d]pyrimidin-3-yl)-2-methoxyphenyl)methanesul fonamide] | 40
19 | COc1ccc(-c2nn([C@@H](C)c3cc4scc(Cl)n4c(=O)c3-c3cccc(F)c3)c3ncnc(N)c23)cc1NS(C)(=O)=O [Example 45, (S)-N-(5-(4-amino-1-(1-(3-chloro-6-(3-fluorophenyl)-5-oxo-5H-thiazolo[3,2-a]pyridin-7-yl)ethyl)-1H-pyrazolo[3,4-d]pyrimidin-3-yl)-2-methoxyphenyl)m ethanesulfonamide] | 41

Same assay, conditions: inhibition of OCI-LY10 cells proliferation, 72 h incubation, MTS readout at 490 nm

Row | Structure (SMILES) | IC50 [nM]
20 | Cc1csc2cc(C(C)n3nc(-c4ccc(OC(C)C)c(F)c4)c4c(N)ncnc43)c(-c3ccccc3)c(=O)n12 (centres unmarked) [Example 2, 7-(1-(4-amino-3-(3-fluoro-4-isopropoxyphenyl)-1H-pyrazolo[3,4-d]pyrimidin-1-yl)ethyl)-3-methyl-6-phenyl-5H-thiazolo[3,2-a]pyridin-5-one] | 2
21 | Cc1csc2cc([C@H](C)n3nc(-c4ccc(OC5CC5)c(F)c4)c4c(N)ncnc43)c(-c3ccccc3)c(=O)n12 [Example 17, (S)-7-(1-(4-amino-3-(4-cyclopropoxy-3-fluoropheny1)-1H-pyrazolo[3,4-d]pyrimidin-1-yl)ethyl)-3-methyl-6-phenyl-5H-thiazolo[3,2-a]pyridin-5-one] | 65
22 | C[C@@H](c1cc2scc(Cl)n2c(=O)c1-c1cccc(F)c1)n1nc(-c2ccc(OC(F)F)c(F)c2)c2c(N)ncnc21 [Example 66, (S)-7-(1-(4-amino-3-(4-(difluoromethoxy)-3-fluorophenyl)-1H-pyrazolo[3,4-d]pyrimidin-1-yl)ethyl)-3-chloro-6-(3-fluorophenyl)-5H-thiazolo[3,2-α]pyrid in-5-one] | 5
23 | C[C@@H](c1cc2scc(Cl)n2c(=O)c1-c1ccccc1)n1nc(-c2ccc(OC(F)F)c(F)c2)c2c(N)ncnc21 [Example 67, (S)-7-(1-(4-amino-3-(4-(difluoromethoxy)-3-fluorophenyl)-1H-pyrazolo[3,4-d]pyrimidin-1-yl)ethyl)-3-chloro-6-ph enyl-5H-thiazolo[3,2-α]pyridin-5-one] | 1
